Experimental data as given in patent US11866416B2, “Streptococcus mutans glucosyl transferase inhibitors for dental caries therapy” (UAB Research Foundation, priority 2018, dated 2024).
Values after ≈ are worked out from the molar mass of the structure shown. Read-outs that look alike come from different tables or passages of the source.

Columns and labels:
S. mutans = assay: microbe, parasite or virus in culture; format: cell-based, Streptococcus mutans; settings: for MIC50: Streptococcus mutans, >300 = no inhibition up to 300 μM, read-out: Growth Inhibition MIC50
Procedure: Cell viability of S. mutans, S. gordonii, S. sanguinis, Aggregatibacter actinomycetemcomitans and Actinomyces. […] The number of colony-forming units (CFU) per milliliter of each sample treated with selected compounds at different concentrations was enumerated after incubation for 24 h at 37° C. and compared to the values obtained from the DMSO control group. Overnight broth cultures were transferred by 1:50 dilutions into fresh THB medium and were allowed to grow until mid-exponential phase (OD470 nm 0.6) before transfer to 96-well plates containing desired concentration of the compound. After 16 h incubation, bacterial growth was measured at OD470, and normalized to the DMSO control (100%).
Cell viability of S. mutans and commensal S. gordonii and S. sanguinis. Effects of lead small molecules on cell viability were examined. The number of colony-forming units (CFU) per milliliter for each compound at different concentrations was determined after incubation for 24 h at 37° C. and compared to the values obtained from the DMSO control group.
Cell viability of S. mutans and commensal S. gordonii and S. sanguinis. […] DMSO served as a control group and provided a relative comparison for the number of colony-forming units (CFU) per milliliter for each compound at different concentrations was determined after incubation for 24 h at 37° C. The final concentration of DMSO used in the assays was 1%.

S. mutans biofilm = S. mutans biofilm formation and inhibition assay (96-well plates, crystal violet); format: cell-based, Streptococcus mutans
Procedure: Biofilm assays using 96-well flat-bottom polystyrene microtiter plates were performed to evaluate S. mutans biofilm formation at various conditions as described (Liu et al. (2011) Antimicrobial Agents and Chemotherapy 55, 2679; Zhang et al. (2015) International Journal of Antimicrobial Agents 46, 174), the disclosures of which are incorporated herein by reference in their entirety). Each assay was replicated three times. Compounds that inhibited biofilm formation at minimum concentration (MBIC) were determined by serial dilutions.
S. mutans biofilm formation and inhibition assays. […] Each assay was replicated three times. Minimum biofilm inhibitory concentration (MBIC) of compounds was determined by serial dilutions.
S. mutans biofilm formation and inhibition assays. Biofilm assays using 96-well flat-bottom polystyrene microtiter plates were performed to evaluate S. mutans biofilm formation at various conditions as described. Each assay was replicated […]. Compounds that inhibited 50% biofilm formation were determined by serial dilutions.
S. mutans biofilm formation and inhibition assays. A well-established protocol to study S. mutans biofilm formation in 96-well flat-bottom polystyrene microtiter plates was used, in triplicate (Mattos-Graner, R. O.; Napimoga, M. H.; Fukushima, K.; Duncan, M. J.; Smith, D. J., Comparative analysis of Gtf isozyme production and diversity in isolates of Streptococcus mutans with different biofilm growth phenotypes. Journal of clinical microbiology 2004, 42 (10), 4586-4592). The stock solutions were made up in 100% DMSO, and final concentration of DMSO used in the assays was 1%. Minimum biofilm inhibitory concentration (MBIC) of compounds was determined by serial dilutions.

[1] = Streptococcus mutans, Table 1, >500 = no inhibition up to 500 μM, read-out: Biofilm Inhibition IC50
[2] = Streptococcus mutans, Table 2, read-out: Biofilm Inhibition IC50
[3] = Streptococcus mutans, Table 3, read-out: Biofilm Inhibition IC50
[4] = Table 6, chalcones, 200 μM, NI = no inhibition
[5] = Streptococcus mutans, Table 5, >500 = no inhibition up to 500 μM, read-out: Biofilm Inhibition IC50

| Structure (SMILES) | MIC50 (S. mutans; Table 2) [µM] | IC50 (S. mutans biofilm; [1]) [µM] | IC50 (S. mutans biofilm; [2]) [µM] | other results |
| --- | --- | --- | --- | --- |
| COC(=O)c1cccc(NC(=O)c2cnc3ccccc3c2)c1 [AA] | > 300 | 147 | 147 | – |
| Cc1ccc(S(=O)(=O)Nc2cccc(NC(=O)c3cc4cc([N+](=O)[O-])ccc4s3)c2)cc1 [AD] | > 300 | 63.7 | 63.7 | – |
| NCc1ccccc1NC(=O)c1ccc2ccccc2c1 [AH] | > 300 | 160 | 160 | – |
| CC(C)(C)OC(=O)NCc1ccccc1NC(=O)c1cnc2ccccc2c1 [AK] | > 300 | 52.8 | 52.8 | – |
| NCc1ccccc1NC(=O)c1cccc2ccccc12 [AN] | > 300 | 93.3 | 93.3 | – |
| CC(C)(C)OC(=O)NCc1ccccc1NC(=O)c1ccc2ccccc2c1 [AO] | > 300 | 56.8 | 56.8 | – |
| COc1cc(OC)c(-c2oc3ccccc3c(=O)c2O)cc1OC [AP-I-240] | – | – | – | MIC50 (S. mutans; Table 3, NI = no inhibition up to 400 μM): 15.3 ± 3 µM (≈ 5.02 µg/mL); IC50 (S. mutans biofilm; [3]): 10.1 ± 1 µM |
| CC(C)(C)OC(=O)NCc1ccccc1NC(=O)c1ccc2ccccc2n1 [AP] | > 300 | 67.5 | 67.5 | – |
| NC(=O)c1ccccc1OC(=O)c1ccc(-c2ccccc2)cc1 [AQ] | > 300 | 55.6 | 55.6 | – |
| NC(=O)c1cccc(NC(=O)c2ccc(-c3ccccc3)cc2)c1 [AR] | > 300 | 79.9 | 79.9 | – |
| NC(=O)c1cccc(NC(=O)c2ccc3ccccc3c2)c1 [AT] | > 300 | 67.7 | 67.7 | – |
| NC(=O)c1ccccc1OC(=O)c1ccc2ccccc2c1 [AX] | > 300 | 98.3 | 98.3 | – |
| NC(=O)c1ccccc1OC(=O)c1cc2cc([N+](=O)[O-])ccc2o1 [BA] | – | 279 | – | – |
| COC(=O)c1ccccc1NC(=O)c1cc2cc([N+](=O)[O-])ccc2o1 [BB] | > 300 | 71.4 | 71.4 | – |
| COC(=O)c1ccccc1NC(=O)c1cc2ccccc2s1 [BE] | > 300 | 74.9 | 74.9 | – |
| CCc1ccccc1NC(=O)c1cnc2ccccc2c1 [BH] | – | 204 | – | – |
| O=C(Nc1ccccc1Br)c1cc2cc([N+](=O)[O-])ccc2s1 [BI] | > 300 | 122 | 122 | – |
| CC(C)c1ccccc1NC(=O)c1cnc2ccccc2c1 [BK] | – | > 500 | – | – |
| NC(=O)c1cccc(NC(=O)c2ccc3ccccc3c2O)c1 [BP] | – | 270 | – | – |
| NC(=O)c1ccc(NC(=O)c2cccc3ccccc23)cc1 [BR] | > 300 | 167 | 167 | – |
| NC(=O)c1cccc(NC(=O)c2cccc3ccccc23)c1 [BS] | > 300 | 195 | 195 | – |
| NCc1cccc(NC(=O)c2cc3ccccc3s2)c1 [BX] | > 300 | 209 | 209 | – |
| COC(=O)c1ccc(NC(=O)c2cc3cc([N+](=O)[O-])ccc3[nH]2)cc1 [BZ] | > 300 | 196 | – | – |
| O=C(/C=C/c1cccc(O)c1)c1ccccc1O [Compound 2] | – | – | – | Growth inhibition 200 μM (%) (S. mutans; [4]): 86 ± 0.5%; IC50 (S. mutans; Table 6, chalcones, NI = no inhibition, read-out: S. mutans Growth IC50): 32 ± 0.3 µM; Biofilm inhibition 200 μM (%) (S. mutans biofilm; [4]): 84 ± 3%; IC50 (S. mutans biofilm; Table 6, chalcones, read-out: S. mutans Biofilm IC50): 64 ± 4 µM |
| O=C(Nc1ccccc1)c1cc2cc([N+](=O)[O-])ccc2s1 [Compound 3D] | – | > 500 | – | IC50 (S. mutans biofilm; [5]): > 500 µM |
| O=C(Nc1ccccc1)c1cnc2ccccc2c1 [Compound 3L] | – | > 500 | – | IC50 (S. mutans biofilm; [5]): > 500 µM |
| COc1ccc(/C=C/C(=O)c2ccc3c(c2)OCO3)cc1O [Compound 14] | – | – | – | effect on S. mutans biofilm in the preliminary screen (S. mutans biofilm; chalcones, 200 μM): no anti-biofilm effects |
| O=c1c(O)c(-c2cc(O)c(O)c(O)c2)oc2cc(O)ccc12 [PAY] | – | – | – | IC50 (S. mutans biofilm; [3]): 74.5 ± 9.8 µM |
| O=c1c(O)c(-c2ccc(O)cc2)oc2ccccc12 [SN-II-78] | – | – | – | IC50 (S. mutans biofilm; [3]): 200 ± 10 µM |

Continued, in another order:

| MIC50 (S. mutans; Table 2) [µM] | IC50 (S. mutans biofilm; [1]) [µM] | IC50 (S. mutans biofilm; [2]) [µM] | Structure (SMILES) | other results |
| --- | --- | --- | --- | --- |
| > 300 | 31.4 | 31.4 | COC(=O)c1cccc(NC(=O)c2cc3cc([N+](=O)[O-])ccc3[nH]2)c1 [AB] | – |
| > 300 | 144 | 144 | COC(=O)c1ccc(NC(=O)c2cc3cc([N+](=O)[O-])ccc3o2)cc1 [AC] | – |
| > 300 | 2.7 | 2.7 | COC(=O)c1cccc(NC(=O)c2cc3cc([N+](=O)[O-])ccc3o2)c1 [AE] | – |
| – | > 500 | – | NC(=O)c1ccccc1OC(=O)c1cc2ccccc2s1 [AF] | – |
| – | 239 | – | NC(=O)c1ccc(NC(=O)c2cc3cc([N+](=O)[O-])ccc3o2)cc1 [AG] | – |
| > 300 | 43.4 | 43.4 | CC(C)(C)OC(=O)NCc1ccccc1NC(=O)c1cc2ccccc2s1 [AI] | – |
| > 300 | 51.5 | 51.5 | CC(C)(C)OC(=O)NCc1ccccc1NC(=O)c1cc2cc([N+](=O)[O-])ccc2s1 [AJ] | – |
| > 300 | 136 | 136 | NCc1ccccc1NC(=O)c1cnc2ccccc2c1 [AL] | – |
| > 300 | 106 | 106 | NCc1ccccc1NC(=O)c1cc2cc([N+](=O)[O-])ccc2s1 [AM] | – |
| – | 84.1 | – | NC(=O)c1ccccc1NC(=O)c1ccc2ccccc2c1 [AS] | – |
| – | > 500 | – | NC(=O)c1ccccc1NC(=O)c1ccc(-c2ccccc2)cc1 [AU] | – |
| > 300 | 111 | 111 | NC(=O)c1cccc(NC(=O)c2ccc3ccccc3n2)c1 [AV] | – |
| – | > 500 | – | NC(=O)c1ccc(NC(=O)c2ccc3ccccc3c2)cc1 [AW] | – |
| – | > 500 | – | NC(=O)c1ccccc1NC(=O)c1ccc2ccccc2n1 [AY] | – |
| > 300 | 121 | 121 | COC(=O)c1ccccc1NC(=O)c1ccc2ccccc2c1 [AZ] | – |
| > 300 | 54.4 | 54.4 | NC(=O)c1ccc(NC(=O)c2ccc3ccccc3n2)cc1 [BC] | – |
| > 300 | 89.5 | 89.5 | COC(=O)c1ccccc1NC(=O)c1ccc2ccccc2n1 [BD] | – |

| MIC50 (S. mutans; Table 2) [µM] | IC50 (S. mutans biofilm; [1]) [µM] | IC50 (S. mutans biofilm; [2]) [µM] | Structure (SMILES) | other results |
| --- | --- | --- | --- | --- |
| – | 446 | – | COC(=O)c1ccccc1NC(=O)c1cnc2ccccc2c1 [BF] | – |
| – | > 500 | – | O=C(Nc1ccccc1I)c1cnc2ccccc2c1 [BG] | – |
| – | 262 | – | CC(C)c1ccccc1NC(=O)c1cc2cc([N+](=O)[O-])ccc2s1 [BJ] | – |
| > 300 | 158 | 158 | CCc1ccccc1NC(=O)c1cc2cc([N+](=O)[O-])ccc2s1 [BL] | – |
| > 300 | 162 | 162 | O=C(Nc1ccccc1F)c1cc2cc([N+](=O)[O-])ccc2s1 [BM] | – |
| > 300 | 56.9 | 56.9 | NC(=O)c1ccc(NC(=O)c2ccc3ccccc3c2O)cc1 [BN] | – |
| > 300 | 49.4 | 49.4 | NC(=O)c1cccc(NC(=O)c2ccccc2-c2ccccc2)c1 [BO] | – |
| – | 446 | – | NC(=O)c1ccccc1NC(=O)c1cccc2ccccc12 [BQ] | – |
| – | > 500 | – | Cc1ccc(S(=O)(=O)Nc2ccccc2N)cc1 [BU] | – |
| – | 395 | – | NC(=O)c1ccc(NC(=O)c2cc3cc([N+](=O)[O-])ccc3s2)cc1 [BV] | – |
| – | > 500 | – | COc1ccc2[nH]c(C(=O)Nc3ccc(C(N)=O)cc3)cc2c1 [BY] | – |
| > 300 | 45.6 | 45.6 | NC(=O)c1ccccc1NC(=O)c1cc2ccccc2s1 [Compound 3B] | – |
| – | > 500 | – | COC(=O)c1ccccc1NC(=O)c1cc2cc([N+](=O)[O-])ccc2s1 [Compound 3C] | – |
| – | > 500 | – | NC(=O)c1ccccc1NC(=O)c1cc2ccccc2[nH]1 [Compound 3E] | – |
| – | > 500 | – | NC(=O)c1ccccc1NC(=O)c1cc2cc([N+](=O)[O-])ccc2[nH]1 [Compound 3H] | – |
| – | > 500 | – | NC(=O)c1ccc(NC(=O)c2cnc3ccccc3c2)cc1 [Compound 3T] | – |
